Marks after values point to notes of the source that are not given here. Residues, ends and D or L forms follow the SMILES beside them.
Legend:
Anti-BVVT-Ab (IgM) = assay: Anti-BVVT-Ab titers (IgM) in newborn rats after single treatment (hemagglutination); format: in vivo, Hannover Wistar rats (newborn); settings: 1x/ip, n = 12, control 6.3 (TP5), 5.2 (TP3)
Procedure: (§1) Rats (Hannover Wistar) were treated (i.p.) within 6-12 hours after birth. Treatments after birth in a single session or in another examination • on the 7th day after the first treatment; • another group was vaccinated 3 times a week after the first day of […]. treatment • in a subsequent group treated over three weeks (9× in total) (10-3,10-5,10-7//10-9, 10-11,10-12, 10-13 M/animal, i.p). • in the fourth test series, the animals were treated with TP fragments at 0, 1, 2, 4, or 5 days of age. The rats were unanimously immunized on the 14th day after birth (1% BVVT with 0.5 ml cell suspension, i.p.). Immune responses were measured after 7 days on day 21 of the experiment.
(§2) Rats (Hannover Wistar) were treated (i.p.) within 6-12 hours after birth. Treatments after birth in a single session or in another examination • on the 7th day after the first treatment; • another group was vaccinated 3 times a week after the first day of treatment. • in a subsequent group, the treatments took place over three weeks (9× in total) (10-3,10-5,10-7//10-9, 10-11,10-12,10-13 M/animal, i.p.). • in the fourth test series, the animals were treated with TP fragments at 0, 1, 2, 4, or 5 days of age. The rats were randomly immunized on the 14th day after birth (1% BVVT with 0.5 ml cell suspension, i.p.). Immune responses were measured after 7 days on day 21 of the experiment. 1.2. Determination of anti-BVVT Ab titers (from rat blood samples ex vivo) • with the haemagglutination method (Takátsy and Fürész, 1955) on 96-well plates (Flow). 50 ul of 0.9% NaCl solution was added to each well. The sera (50 μl) were diluted by half dilution in 12 steps, mixed with 25 pμl 2% BVVT cell suspension, and incubated (1 hour at 37 °C). The hemagglutination titers of the sera are determined. Values expressed in logarithmic values refer to total agglutination.

[1] = system: PFC (plaque-forming cells); assay: PFC (plaque-forming cells) in H. Wistar rats; format: in vivo, Hannover Wistar rats (newborn); settings: for PFC (plaque-forming cells): 1x/ip, control 53.9 ± 8.8; for PFC (plaque-forming cells) / number of PFC: n = 12; for number of PFC: 9x (3x3 weeks/ip), control 139 ± 12.7
Procedure: as §1, §2
1.3./Determination of the number of plaque-forming cells (PFC) (using rat spleen cells) The chopped splenocytes were placed in a culture medium (Parker 199) and then shaken with a shaker for 1 minute. The cells were suctioned from the surface of the rapidly settling tissue debris. Red blood cells were removed osmotically. Cell suspensions were adjusted to 107/ml. The cell suspensions were mixed with a 15% BVVT cell suspension in a ratio of 2:1. PFC was determined with the mixture using a modified chamber technique according to Channingham et al., 1966). Before filling the chamber, 50 μl of fresh diluted guinea pig serum (1:20) was added. The chambers (2-2/slide) were incubated (370C 45′) after sealing with paraffin, the formed plaques were counted under a microscope (at 400× magnification) within 2 hours Marker tests related to the rejection reaction of an adult thymus-depleted mouse skin graft 1.4./Rejection of skin transplants in nude mice after treatment with TP fragments (Snell et al., Transplantation 5, 492, 1967).

With `CC(C)[C@H](NC(=O)[C@H](CC(=O)O)NC(=O)[C@H](CCCCN)NC(=O)[C@@H](N)CCCN=C(N)N)C(=O)N[C@@H](Cc1ccc(O)cc1)C(=O)O` [TP5] (H-RKDVY-OH) the “Anti-BVVT-Ab titers (IgM)” value (Anti-BVVT-Ab (IgM); 10^-3 M/animal) was 7.6 2 log, the “Anti-BVVT-Ab titers (IgM)” value (Anti-BVVT-Ab (IgM); 10^-4 M/animal) was 8.1* 2 log and the “Anti-BVVT-Ab titers (IgM)” value (Anti-BVVT-Ab (IgM); 10^-5 M/animal) was 8.6* 2 log. The “Anti-BVVT-Ab titers (IgM)” value (Anti-BVVT-Ab (IgM); 10^-6 M/animal) was 8.5* 2 log, the “Anti-BVVT-Ab titers (IgM)” value (Anti-BVVT-Ab (IgM); 10^-9 M/animal) was 8.0* 2 log and the “Anti-BVVT-Ab titers (IgM)” value (Anti-BVVT-Ab (IgM); 10^-11 M/animal) was 7.7 2 log. The “Anti-BVVT-Ab titers (IgM)” value (Anti-BVVT-Ab (IgM); 10^-13 M/animal) was 7.0 2 log, the “PFC (plaque-forming cells)” value ([1]; 10^-6 M/animal) was 71 and the “number of PFC” value ([1]; 10^-6 M/animal) was 159. The “PFC (plaque-forming cells)” value ([1]; 10^-7 M/animal) was 129*, the “number of PFC” value ([1]; 10^-7 M/animal) was 203* and the “PFC (plaque-forming cells)” value ([1]; 10^-8 M/animal) was 148*. The “number of PFC” value ([1]; 10^-8 M/animal) was 223*, the “PFC (plaque-forming cells)” value ([1]; 10^-9 M/animal) was 90* and the “number of PFC” value ([1]; 10^-9 M/animal) was 126. The “PFC (plaque-forming cells)” value ([1]; 10^-10 M/animal) was 76, the “number of PFC” value ([1]; 10^-10 M/animal) was 185* and the “PFC (plaque-forming cells)” value ([1]; 10^-11 M/animal) was 75. For the same compound, the “number of PFC” value ([1]; 10^-11 M/animal) was 162, the “PFC (plaque-forming cells)” value ([1]; 10^-13 M/animal) was 67 and the “number of PFC” value ([1]; 10^-13 M/animal) was 143. The “potency TP3 versus TP5 (PFC)” value ([1]; comparison, in words) was “TP3=TP5 potency”.

— patent publication US20260315564A1, “THE USE OF TP3 (THYMOPENTIN ANALOG) BY INCREASING THE ACTIVITY AND NUMBER OF T-CELLS INVOLVED IN THE DEFENSE MECHANISM OF THE IMMUNE SYSTEM OF MAMMALS, FOR THE PREVENTION OR TREATMENT OF DISEASES TO EXTEND THE AVERAGE LIFESPAN” (priority 2023, published 2026)
